# Article PMC10910545, “The crystal structure of mycothiol disulfide reductase (Mtr) provides mechanistic insight into the specific low-molecular-weight thiol reductase activity of Actinobacteria” (Acta Crystallographica. Section D, Structural Biology, 2024)
# What was measured:
# [1] = molecular target: T1, Mtr Re (mycothiol disulfide reductase) (Rhodococcus erythropolis, UniProt C0ZY75); assay: X-ray crystal structure, […] A; format: binding; settings: copurified cofactor, one FAD per monomer; redox-active Cys39-Cys44 on si face
# T1 construct: full-length, 458 residues, pET-22b(+) NdeI/XhoI, E. coli BL21(DE3); homodimer about 100 kDa
# T1 sequence (C0ZY75 entry or part of it): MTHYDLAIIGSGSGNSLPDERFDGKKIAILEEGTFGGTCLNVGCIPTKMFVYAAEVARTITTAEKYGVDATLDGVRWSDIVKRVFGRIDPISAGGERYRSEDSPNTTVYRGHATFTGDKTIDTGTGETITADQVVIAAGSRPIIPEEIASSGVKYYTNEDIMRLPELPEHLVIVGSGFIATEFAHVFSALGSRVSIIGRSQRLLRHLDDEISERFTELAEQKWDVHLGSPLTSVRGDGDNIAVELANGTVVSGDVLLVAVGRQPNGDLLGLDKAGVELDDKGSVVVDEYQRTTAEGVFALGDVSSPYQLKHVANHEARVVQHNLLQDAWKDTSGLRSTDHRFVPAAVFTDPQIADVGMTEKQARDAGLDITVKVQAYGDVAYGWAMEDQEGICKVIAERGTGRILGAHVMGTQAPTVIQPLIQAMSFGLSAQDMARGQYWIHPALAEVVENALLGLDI
# [2] = molecular target: T2, Mtr Ms (mycothiol disulfide reductase) (Mycolicibacterium smegmatis, UniProt A0QVL0); assay: UV-Vis A465/A280 ratio and yellow crystals; format: binding; settings: copurified cofactor; FAD not modelled in the 4.7 A structure
# T2 construct: gene MSMEG_2611; full-length, 461 residues, pET-22b(+) NdeI/XhoI, E. coli BL21(DE3); homodimer about 100 kDa
# T2 sequence (A0QVL0 1-461): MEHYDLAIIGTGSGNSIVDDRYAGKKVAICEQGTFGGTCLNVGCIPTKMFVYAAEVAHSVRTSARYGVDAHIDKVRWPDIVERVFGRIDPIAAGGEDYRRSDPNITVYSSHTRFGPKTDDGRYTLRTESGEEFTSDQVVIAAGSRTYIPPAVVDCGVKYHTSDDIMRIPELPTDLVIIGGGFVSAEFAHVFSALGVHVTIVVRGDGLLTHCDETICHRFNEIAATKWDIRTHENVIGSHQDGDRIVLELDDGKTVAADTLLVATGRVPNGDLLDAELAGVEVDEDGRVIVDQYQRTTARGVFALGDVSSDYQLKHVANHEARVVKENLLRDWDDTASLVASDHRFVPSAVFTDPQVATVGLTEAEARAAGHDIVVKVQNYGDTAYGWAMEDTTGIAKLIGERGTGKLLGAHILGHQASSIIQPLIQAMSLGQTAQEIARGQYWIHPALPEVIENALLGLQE
compound,measurement,setting,value
Cc1cc2nc3c(=O)[nH]c(=O)nc-3n(C[C@H](O)[C@H](O)[C@H](O)COP(=O)(O)OP(=O)(O)OC[C@H]3O[C@@H](n4cnc5c(N)ncnc54)[C@H](O)[C@@H]3O)c2cc1C [FAD],"X-ray crystal structure, 2.9 A",[1],"In Mtr Re , both monomers show strong density for the FAD cofactor"
same,UV-Vis A465/A280 ratio and yellow crystals,[2],support the presence of FAD in both proteins
